This passage reports IC50 results from US20080051420A1, “New Compounds 317” (AstraZeneca AB, priority 2006, published 2008).

T1 sequence (P56817 22-460): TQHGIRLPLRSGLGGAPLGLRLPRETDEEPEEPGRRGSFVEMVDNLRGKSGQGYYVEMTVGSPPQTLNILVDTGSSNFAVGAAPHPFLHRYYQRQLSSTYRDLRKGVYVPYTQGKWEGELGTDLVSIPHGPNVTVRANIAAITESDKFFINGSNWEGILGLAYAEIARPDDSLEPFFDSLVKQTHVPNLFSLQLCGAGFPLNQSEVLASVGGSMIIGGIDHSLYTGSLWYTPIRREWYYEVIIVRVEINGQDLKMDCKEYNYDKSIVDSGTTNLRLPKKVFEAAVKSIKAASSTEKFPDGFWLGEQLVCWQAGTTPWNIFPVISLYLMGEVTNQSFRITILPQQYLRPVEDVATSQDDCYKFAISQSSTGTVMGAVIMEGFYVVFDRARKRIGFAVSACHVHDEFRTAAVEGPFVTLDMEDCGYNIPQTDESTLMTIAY

This assay has as its target T1, human β-secretase (Homo sapiens, UniProt P56817).
T1 construct: The soluble part of the human β-secretase (AA 1-AA 460) was cloned; made in house
Nature of the assay: TR-FRET assay (β-secretase enzyme, sBACE-Fc). In kind it is biochemical. Conditions: read-out: IC50 in TR-FRET assay. On the procedure:
The enzyme used in the IGEN Cleavage-, Fluorescent-, TR-FRET- and BiaCore assays is described as follows:
The soluble part of the human β-secretase (AA 1-AA 460) was cloned into the ASP2-F10-1-IRES-GFP-neoK mammalian expression vector. The gene was fused to the Fc domain of IgG1 (affinity tag) and stably cloned into HEK 293 cells. Purified sBACE-Fc is stored in Tris buffer, pH 9.2 and has a purity of 95%.
Enzyme was diluted to 6 μg/mL and the substrate (Europium)[…](Qsy7) to 200 nM in reaction buffer (NaAcetate, chaps, triton x-100, EDTA pH 4.5). Compounds were diluted to the desired concentration in dimethyl sulfoxide (final dimethyl sulfoxide concentration in assay is 5%). […] Enzyme (9 μL) and 1 μL of compound in dimethyl sulfoxide was added to the plate, mixed and pre-incubated for 10 min. Substrate (10 μL) was added and the reaction proceeded in the dark for 15 min at RT. The reaction was stopped with the addition of 7 μL NaAcetate, pH 9. […] The dimethyl sulfoxide control defined the 100% activity level and 0% activity was defined by exclusion of the enzyme (using reaction buffer instead).
In general terms: Time-resolved FRET reads energy transfer from a long-lived donor to a nearby acceptor.
Broadly, the IC50 is the midpoint of a concentration-inhibition curve. For `CCCS(=O)(=O)Oc1cccc(C2(c3cccc(-c4cccc(OC)c4)c3)N=C(N)N3CCCN=C32)c1` (stereo not drawn) [Example 124, 3-[6-Amino-8-(3′-methoxybiphenyl-3-yl)-2,3,4,8-tetrahydroimidazo[1,5-a]pyrimidin-8-yl]phenyl propane-1-sulfonate], the IC50 amounted to 528 nM.

Take `CCCS(=O)(=O)Oc1cccc(C2(c3cccc(-c4cncnc4)c3)N=C(N)N3CCCN=C32)c1` (stereo not drawn) [Example 125, 3-[6-Amino-8-(3-pyrimidin-5-ylphenyl)-2,3,4,8-tetrahydroimidazo[1,5-a]pyrimidin-8-yl]phenyl propane-1-sulfonate]: the half-maximal inhibitory concentration (IC50) was determined as 51 nM.

Consider `NC1=NC(c2cccc(OS(=O)(=O)C3CC3)c2)(c2cccc(-c3cc(Cl)cc(Cl)c3)c2)C2=NCCCN12` (stereo not drawn) [Example 126, 3-[6-Amino-8-(3′,5′-dichlorobiphenyl-3-yl)-2,3,4,8-tetrahydroimidazo[1,5-a]pyrimidin-8-yl]phenyl cyclopropanesulfonate], for which the IC50 is 156 nM.

In the case of `COc1cccc(-c2cccc(C3(c4cccc(OS(=O)(=O)C5CC5)c4)N=C(N)N4CCCN=C43)c2)c1` (stereo not drawn) [Example 127, 3-[6-Amino-8-(3′-methoxybiphenyl-3-yl)-2,3,4,8-tetrahydroimidazo[1,5-a]pyrimidin-8-yl]phenyl cyclopropanesulfonate], the IC50 was determined as 177 nM.

On to `NC1=NC(c2cccc(OS(=O)(=O)C(F)(F)F)c2)(c2cccc(-c3cc(Cl)cc(Cl)c3)c2)C2=NCCCN12` (stereo not drawn) [Example 128, 3-[6-Amino-8-(3′,5′-dichlorobiphenyl-3-yl)-2,3,4,8-tetrahydroimidazo[1,5-a]pyrimidin-8-yl]phenyl trifluoromethanesulfonate], for which the IC50 amounted to 214 nM.

For the molecule `COc1cccc(-c2cccc(C3(c4cccc(OS(=O)(=O)C(F)(F)F)c4)N=C(N)N4CCCN=C43)c2)c1` (stereo not drawn) [Example 129, 3-[6-Amino-8-(3′-methoxybiphenyl-3-yl)-2,3,4,8-tetrahydroimidazo[1,5-a]pyrimidin-8-yl]phenyl trifluoromethanesulfonate], the IC50 is 464 nM.

Regarding `NC1=NC(c2cccc(OS(=O)(=O)C(F)(F)F)c2)(c2cccc(-c3cccnc3)c2)C2=NCCCN12` (stereo not drawn) [Example 130, 3-[6-Amino-8-(3-pyridin-3-ylphenyl)-2,3,4,8-tetrahydroimidazo[1,5-a]pyrimidin-8-yl]phenyl trifluoromethanesulfonate], the half-maximal inhibitory concentration (IC50) was 137 nM.

As for `NC1=NC(c2cccc(OS(=O)(=O)C(F)(F)F)c2)(c2cccc(-c3cc(Cl)cnc3F)c2)C2=NCCCN12` (stereo not drawn) [Example 131, 3-{6-Amino-8-[3-(5-chloro-2-fluoropyridin-3-yl)phenyl]-2,3,4,8-tetrahydroimidazo[1,5-a]pyrimidin-8-yl}phenyl trifluoromethanesulfonate], the half-inhibitory concentration (IC50) was 538 nM.

`NC1=NC(c2cccc(OS(=O)(=O)C(F)(F)F)c2)(c2cccc(-c3cncnc3)c2)C2=NCCCN12` (stereo not drawn) [Example 132, 3-[6-Amino-8-(3-pyrimidin-5-ylphenyl)-2,3,4,8-tetrahydroimidazo[1,5-a]pyrimidin-8-yl]phenyl trifluoromethanesulfonate]: the concentration for half-maximal inhibition (IC50) turned out to be 375 nM.

Consider `COc1cc(OS(C)(=O)=O)cc(-c2cccc(C3(c4cccc(OC)c4)N=C(N)N4CCCN=C43)c2)c1` (stereo not drawn) [Example 133, 3′-[6-Amino-8-(3-methoxyphenyl)-2,3,4,8-tetrahydroimidazo[1,5-a]pyrimidin-8-yl]-5-methoxybiphenyl-3-yl methanesulfonate], for which the IC50 came out at 375 nM.

On to `CN(C)C(=O)c1cccc(C2(c3cccc(-c4cccnc4F)c3)N=C(N)N3CC(F)(F)CN=C32)c1` (stereo not drawn) [Example 145, 3-{6-Amino-3,3-difluoro-8-[3-(2-fluoropyridin-3-yl)phenyl]-2,3,4,8-tetrahydroimidazo[1,5-a]pyrimidin-8-yl}-N,N-dimethylbenzamide], for which the IC50 was determined as 224 nM.

Take `CN(C)C(=O)c1ccc(C2(c3cccc(-c4cccnc4F)c3)N=C(N)N3CC(F)(F)CN=C32)cc1` (stereo not drawn) [Example 146, 4-{6-Amino-3,3-difluoro-8-[3-(2-fluoropyridin-3-yl)phenyl]-2,3,4,8-tetrahydroimidazo[1,5-a]pyrimidin-8-yl}-N,N-dimethylbenzamide]: the IC50 amounted to 214 nM.
